Patent US9538763B2, “Cleaning, disinfecting and microbicidal compositions” (priority 2009, dated 2017)

What was measured:
Type in all cases: cell-based
Staphylococcus aureus = assay: modified detergent and germicidal sanitizer test of the A.O.A.C.; conditions: 50 ppm hypochlorite control
Method: (§1) The microbicidal efficacy of the microbicidal disinfecting compositions of Examples 1-3 (compositions A-C) were evaluated with 50 ppm of hypochlorite as a control against Staphylococcus aureus and Escherichia coli by the modified detergent and germicidal sanitizer test of the A.O.A.C. (Lopes, 1986).

Escherichia coli = assay: as above; conditions: 50 ppm hypochlorite control
Method: as §1

Salmonella = assay: treatment of Salmonella-contaminated tomatoes; conditions: 150 ppm
Method: The microbicidal efficacy of the microbicidal disinfecting composition of Example 1 (composition A) was further tested and proven effective against Salmonella on contaminated tomatoes. When Salmonella-contaminated tomatoes were treated with 0.1% solution of composition A, the viable bacterial population was reduced by 2.31 log10 CFU as compared with 2.11 log10 CFU with 150 ppm of hypochlorite.

OCl [Hypochlorite, hypochlorite]
% Kill Staph. aureus (Staphylococcus aureus): >99.999%
% Kill E. coli (Escherichia coli): >99.999%
reduction of viable bacterial population (Salmonella): 2.11 log10 CFU
